# According to paper PMC11775380, “Discovery of Novel Nav1.7-Selective Inhibitors with the 1H-Indole-3-Propionamide Scaffold for Effective Pain Relief” (Research, 2025):
# Tests used:
# [1] = design: method as in PMID 28682065; conditions: positive control drug; cited from earlier work
# [2] = tested on: acetic acid writhing pain model in mice; assay: Acetic acid-induced writhing test; type: in vivo, ICR mice; conditions: 15 min before acetic acid, writhing counted 30 min
# Source text: Acute pain was a common type of pain with considerable value for drug development. Here, 2 acute inflammatory pain models were used to verify the acute analgesic effect of WN2-R. One such model, the acetic acid writhing pain model in mice, is a well-established acute visceral pain model. It simulates clinically relevant intestinal discomfort by stimulating the abdominal mucosa and intestine with acetic acid and has been extensively used to screen analgesic or anti-inflammatory drugs. Based on this model, we evaluated the acute analgesic effect of WN2-R using 2 drug delivery methods, i.g. and […] (n = 6). […] Furthermore, the analgesic effect of WN2-R at the same dose was similar to that of the positive control drug PF-05089771, with no significant difference between these two. […] Three male and 3 female ICR mice were used in the acetic acid-induced writhing test. Mice were preadministered with either WN2-R (5 mg/kg i.g., 1 mg/kg i.m.), PF05089771 (5 mg/kg i.g., 1 mg/kg i.m.), or saline 15 min before i.p. injection of 0.2 ml of acetic acid (0.8%, V/V). Each mouse was then placed in an individual open polyvinyl cage (30 cm × 40 cm × 30 cm). The number of writhing responses, characterized by a wave of abdominal muscle contraction followed by hind limb extension, was recorded for 30 min after acetic acid injection. These responses served as an indication of nociceptive intensity. The percentage of inhibition was calculated using the following equation: Inhibition% = (Writhing Numbervehicle – Writhing Numberdrug)/Writhing Numbervehicle × 100% [15, 47].
# [3] = tested on: formalin-induced acute inflammatory pain model in mice; assay: Formalin-induced inflammation pain model; type: in vivo, ICR mice; conditions: 30 min before formalin
# Experimental: The formalin-induced acute inflammatory pain model in mice, achieved through the plantar injection of formalin aqueous solution, is another widely used model for acute inflammatory pain. This model comprises 2 stages: an initial phase ([…]) where pain is triggered by formalin's direct stimulation of nociceptive receptors on sensory neurons, followed by a second phase (15 to 40 min) characterized by persistent inflammatory pain due to tissue damage. Similarly, both i.g. and i.m. methods were used to evaluate the effect of WN2-R in this model (n = 6) (Fig. 6B and I). […] These findings were consistent across repeated experiments.
# To induce the pain response, 20 μl of formalin (5%, w/v) was injected subcutaneously into the right hind paw of ICR mice (3 male and 3 female). Prior to the formalin injection, mice were preadministered with WN2-R (5 mg/kg i.g., 1 mg/kg i.m.), PF05089771 (5 mg/kg i.g., 1 mg/kg i.m.), or saline 30 min beforehand. The duration of licking/biting the injected paw was recorded every 5 min, commencing immediately after the formalin injection and continuing for 40 min. Phase I and II in this assay corresponded to the nociceptive response observed between 0 and 5 min and between 10 and 40 min, respectively.
# [4] = tested on: SNI neuropathic pain model in mice; assay: Spared nerve injury (SNI) neuropathic pain model; type: in vivo, C57 mice
# Source text: Peripheral nerve injury models were developed to investigate the mechanisms of neuropathic pain. One such model, the spared nerve injury (SNI) neuropathic pain model in mice, involved ligating and transecting the […] and tibial nerves within the […] nerve, while leaving the sural nerve untouched. […] To evaluate the neuroanalgesic potential of WN2-R in this model, both i.g. and i.m. routes were used to evaluate the neuroanalgesic effect of WN2-R in this model (n = 5). […] In contrast, PF-05089771 reached its peak at 1 h (PWTs = 1.08 g) but then rapidly lost its efficacy, resembling the saline control group after 1 h. Throughout the experiment, the PWTs of the WN2-R group remained consistently higher than that of the PF-05089771 group (Fig. 6F and G). […] Subsequently, the efficacy of both drugs gradually declined, converging with the saline group after 3 h. Throughout the entire dosing period, the PWTs of the WN2-R group were slightly higher than that of the PF-05089771 group (Fig. 6M and N). […] To elucidate the time course of pain hypersensitivity induced by SNI, the behavioral responses (mechanical testing with von Frey fibers) were measured before surgery (baseline value) in C57 mice (5 female). Then, the mice underwent SNI surgery, which involved ligation and axotomy of the common peroneal and tibial nerves, while sparing the sural nerve. Sham-operated mice served as controls, with their nerves remaining intact. To confirm the presence of pain hypersensitivity in the SNI group, behavioral testing was carried out 14 days after SNI in each animal. Post drugs/saline administration, PWTs were measured at 0, 0.5, 1, 1.5, 2, 2.5, and 3 h for the i.g. route, and at 0, 0.5, 1, 2, 3, and 4 h for the i.m. route.
# [5] = tested on: CFA inflammatory pain model of mice; assay: CFA-induced inflammatory (chronic) pain model; type: in vivo, ICR mice; conditions: for Paw withdrawal threshold (PWT) at 1.5 h: 1.5 h post drug, 24 h after CFA
# Experimental: The chronic pain model of mice was often used to simulate persistent pain in humans. In this model, chronic persistent pain was induced by injecting complete Freund’s adjuvant (CFA) into the right hind foot of mice. […] The chronic analgesic potential of WN2-R was evaluated using both i.g. and i.m. methods (n = 4). When administered by i.g., the PWTs of the WN2-R group and the PF-05089771 group reached their peak at 1.5 and 1 h after administration, respectively, and subsequently declined to the same level as the saline group at 2.5 h (Fig. 6D). […] When administered i.m., both the WN2-R and PF-05089771 groups reached peak PWTs at 1.5 h, and declined to the saline group level at 3 h (Fig. 6K). […] The mechanical allodynia of ICR mice (2 male and 2 female) was assessed prior to model construction using von Frey fibers according to the up–down method. Mice with paw withdraw thresholds (PWTs) remarkably deviating from the mean value were excluded from further experiments. Subsequently, 15 μl of CFA was unilaterally injected into the intraplantar surface of the right hind paw of each mice. After 24 h, the PWTs of the mice were assessed. During the i.g. administration of drugs or saline, PWTs were measured 0, 0.5, 1, 1.5, 2, and 2.5 h post drugs/saline administration. Similarly, during i.m. administration, PWTs were measured at 0, 0.5, 1, 1.5, 2, 2.5, and 3 h post drugs/saline administration.
# [6] = target: T1, human Nav1.7 (hNav1.7) (Homo sapiens, UniProt Q15858); assay: Whole-cell patch-clamp inhibition of Nav1.7 currents in transfected HEK293T cells; type: cell-based; conditions: for inhibition at 10 µM: HEK-293T, 10 μM compound, inhibition rate of Nav1.7, read-out: Inhibitory activity (10 μM)
# T1 construct: expressed in transfected cells; host or cells: HEK293T
# T1 sequence (Q15858 whole entry): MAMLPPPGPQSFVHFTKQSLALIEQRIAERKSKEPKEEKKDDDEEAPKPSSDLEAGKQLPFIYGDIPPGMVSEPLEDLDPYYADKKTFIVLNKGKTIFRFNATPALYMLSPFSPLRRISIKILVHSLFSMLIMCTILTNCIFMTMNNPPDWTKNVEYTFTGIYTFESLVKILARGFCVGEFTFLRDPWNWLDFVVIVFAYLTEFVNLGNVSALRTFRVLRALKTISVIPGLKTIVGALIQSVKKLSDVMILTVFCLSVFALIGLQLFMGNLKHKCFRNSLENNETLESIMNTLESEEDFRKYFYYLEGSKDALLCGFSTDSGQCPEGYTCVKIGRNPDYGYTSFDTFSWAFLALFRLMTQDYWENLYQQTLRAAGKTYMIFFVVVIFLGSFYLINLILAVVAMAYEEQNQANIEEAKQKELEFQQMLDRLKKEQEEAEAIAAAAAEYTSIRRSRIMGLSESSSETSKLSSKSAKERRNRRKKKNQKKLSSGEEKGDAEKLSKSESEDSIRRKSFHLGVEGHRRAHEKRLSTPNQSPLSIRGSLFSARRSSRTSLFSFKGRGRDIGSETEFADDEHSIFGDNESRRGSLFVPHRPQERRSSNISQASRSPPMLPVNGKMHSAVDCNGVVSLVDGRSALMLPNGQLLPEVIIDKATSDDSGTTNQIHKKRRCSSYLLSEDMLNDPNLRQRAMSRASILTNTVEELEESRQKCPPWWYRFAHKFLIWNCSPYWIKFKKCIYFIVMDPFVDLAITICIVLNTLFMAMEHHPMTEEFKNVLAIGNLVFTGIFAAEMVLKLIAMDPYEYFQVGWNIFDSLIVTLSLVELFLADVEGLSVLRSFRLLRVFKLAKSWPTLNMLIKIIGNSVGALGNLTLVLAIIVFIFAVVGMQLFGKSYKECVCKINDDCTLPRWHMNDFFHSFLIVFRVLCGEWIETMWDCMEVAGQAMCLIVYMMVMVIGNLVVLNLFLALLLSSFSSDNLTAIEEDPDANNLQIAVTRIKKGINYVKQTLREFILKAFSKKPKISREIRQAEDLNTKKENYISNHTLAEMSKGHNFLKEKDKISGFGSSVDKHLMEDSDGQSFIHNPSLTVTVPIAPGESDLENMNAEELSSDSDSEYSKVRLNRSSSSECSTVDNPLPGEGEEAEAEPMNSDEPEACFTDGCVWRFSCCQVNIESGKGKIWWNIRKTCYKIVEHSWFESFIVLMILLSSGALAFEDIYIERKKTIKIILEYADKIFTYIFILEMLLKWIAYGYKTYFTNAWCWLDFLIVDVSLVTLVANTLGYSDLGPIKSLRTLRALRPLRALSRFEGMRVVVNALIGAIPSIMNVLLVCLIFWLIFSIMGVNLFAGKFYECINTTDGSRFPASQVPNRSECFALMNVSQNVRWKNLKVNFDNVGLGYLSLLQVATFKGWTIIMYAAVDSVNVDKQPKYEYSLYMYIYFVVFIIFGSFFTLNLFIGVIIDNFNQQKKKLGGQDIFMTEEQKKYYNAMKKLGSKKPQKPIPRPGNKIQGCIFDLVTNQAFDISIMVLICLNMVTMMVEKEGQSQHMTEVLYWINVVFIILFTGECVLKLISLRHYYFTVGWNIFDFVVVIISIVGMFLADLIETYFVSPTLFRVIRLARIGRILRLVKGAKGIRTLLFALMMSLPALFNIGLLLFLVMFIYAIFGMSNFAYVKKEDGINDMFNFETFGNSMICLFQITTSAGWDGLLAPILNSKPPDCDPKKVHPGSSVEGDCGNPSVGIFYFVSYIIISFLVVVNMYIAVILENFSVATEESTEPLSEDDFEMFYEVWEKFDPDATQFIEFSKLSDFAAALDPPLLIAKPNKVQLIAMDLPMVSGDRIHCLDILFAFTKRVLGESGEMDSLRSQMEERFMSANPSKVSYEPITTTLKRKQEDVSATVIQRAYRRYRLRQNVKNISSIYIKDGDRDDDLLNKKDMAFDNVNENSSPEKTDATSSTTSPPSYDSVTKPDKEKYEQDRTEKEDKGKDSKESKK
# T1 sequence (Q07699 19-218 partner): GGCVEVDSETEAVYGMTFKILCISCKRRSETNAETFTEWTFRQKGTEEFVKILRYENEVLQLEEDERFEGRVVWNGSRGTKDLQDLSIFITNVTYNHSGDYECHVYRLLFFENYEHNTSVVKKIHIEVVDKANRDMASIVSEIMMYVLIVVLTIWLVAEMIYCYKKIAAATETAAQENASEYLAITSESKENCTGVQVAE
# T1 sequence (O60939 30-215 partner): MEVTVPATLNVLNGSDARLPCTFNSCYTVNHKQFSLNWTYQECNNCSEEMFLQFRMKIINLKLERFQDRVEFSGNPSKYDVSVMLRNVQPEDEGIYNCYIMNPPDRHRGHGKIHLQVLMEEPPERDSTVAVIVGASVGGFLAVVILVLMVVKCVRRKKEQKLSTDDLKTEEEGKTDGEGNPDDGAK
# Experimental: Human embryonic kidney (HEK) 293T (ATCC CRL-3216) and ND7/23 cells (National Collection of Authenticated Cell Cultures SCSP-5026) were cultured under standard conditions (5% CO2, 37 °C) in Dulbecco’s modified Eagle’s medium (DMEM) containing 10% fetal bovine serum and 1% penicillin-streptomycin solution(all from Gibco, Thermo Fisher Scientific, Waltham, MA, USA). When the cells reached 70% to 90% confluence, human Nav1.2 (hNav1.2), human Nav1.3 (hNav1.3), human Nav1.4 (hNav1.4), human Nav1.5 (hNav1.5), and mouse Nav1.6 (mNav1.6) channel plasmids were cotransfected with enhanced green fluorescent protein (eGFP) into HEK293T cells. Additionally, plasmids expressing β1 and β2 subunits tagged with eGFP were cotransfected with the human Nav1.7 (hNav1.7) channel into HEK293T cells. Human Nav1.8 (hNav1.8) was transiently transfected into ND7/23 cells, along with eGFP, using Lipofectamine 2000 (Invitrogen), adhering strictly to the manufacturer’s protocol. For manual patch-clamp experiments, the cells were plated onto glass coverslips and used within 20 to 48 h of transfection.
# Whole-cell patch-clamp recordings were conducted at 25 ± 2 °C, utilizing an EPC 10USB patch-clamp amplifier (HEKA Elektronik, Lambrecht, Germany). Pipettes, with access resistance between 2.0 and 3.0 MΩ, were pulled from borosilicate glass capillary tubes using a 2-step vertical microelectrode puller (PC-10, Narishige Group, Tokyo, Japan). Voltage-clamp recordings were obtained with PatchMaster software v2 × 73 (HEKA Elektronik) 5 min after establishing whole-cell configuration, sampled at 20 kHz, and filtered at 5 kHz. To minimize voltage errors, 80% series resistance compensation was applied. Pipettes were filled with 140 mM CsF, 10 mM NaCl, 1 mM EGTA, and 10 mM HEPES (pH=7.4, adjusted with CsOH). The external solution contained 140 mM NaCl, 2 mM CaCl2, 1 mM MgCl2, 5 mM KCl, 10 mM HEPES, and 10 mM glucose (pH=7.4, adjusted with NaOH). IC50 values were determined in HEK293T or ND7/23 cell lines by voltage clamping at −80 mV, followed by stepping to the V1/2 of inactivation for 8 s to facilitate compound binding.
smiles,measurement,setting,value
"Nc1[nH]ncc1-c1cc(Cl)ccc1Oc1cc(F)c(S(=O)(=O)Nc2cscn2)cc1Cl [PF-05089771, 4-[2-(5-amino-1H-pyrazol-4-yl)-4-chlorophenoxy]-5-chloro-2-fluoro-N-1,3-thiazol-4-ylbenzenesulfonamide, reference compound]",F (bioavailability),[1],27%
same,Analgesic rate (normalized number of writhing),"[2]; i.g., 5 mg/kg",53.5%
same,Analgesic rate (normalized number of writhing),[2]; i.p. (method: 1 mg/kg i.m.),51.9%
same,Licking time in phase I vs saline,"[3]; i.g., 5 mg/kg",significantly reduced licking time
same,Licking time in phase II vs saline,"[3]; i.g., 5 mg/kg",decreased effectiveness
same,Licking time in phase I vs saline,"[3]; i.m., 1 mg/kg",significantly reduced licking time
same,Licking time in phase II vs saline,"[3]; i.m., 1 mg/kg",significantly reduced licking time
same,Time of peak efficacy,[4]; i.g.,1 h
same,Paw withdrawal threshold (PWTs),"[4]; i.g., 1 h post drug application, 14 days after SNI",1.08 g
same,Time after which efficacy converged with the saline group,[4]; i.m.,3 h
same,Time of peak efficacy,[4]; i.m.,1 h
same,Paw withdrawal threshold (PWTs) at peak efficacy,"[4]; i.m., 1 h post drug application, 14 days after SNI",1.30 g
same,Time at which PWT declined to the saline group level,[5]; i.g.,2.5 h
same,Time of peak PWT after administration,[5]; i.g.,1 h
same,Paw withdrawal threshold (PWT) at 1.5 h,[5]; i.g.,1.32 g
same,Time at which PWT declined to the saline group level,[5]; i.m.,3 h
same,Time of peak PWT after administration,[5]; i.m.,1.5 h
same,Paw withdrawal threshold (PWT) at 1.5 h,[5]; i.m.,1.83 g
"O=C(CC(c1ccc(C(F)(F)F)cc1)c1cn(Cc2ccccc2)c2ccccc12)NCc1ccncc1 (stereo not shown) [B36, C1=CC=C(C=C1)CN2C=C(C3=CC=CC=C32)C(CC(=O)NCC4=CC=NC=C4)C5=CC=C(C=C5)C(F)(F)F]",inhibition at 10 µM,[6],17.2%
"O=C(CC(c1ccc(OCc2ccccc2)cc1)c1cn(Cc2ccc(F)cc2)c2ccccc12)NCCc1ccccn1 (stereo not shown) [B16, C1=CC=C(C=C1)COC2=CC=C(C=C2)C(CC(=O)NCCC3=CC=CC=N3)C4=CN(C5=CC=CC=C54)CC6=CC=C(C=C6)F]",inhibition at 10 µM,[6],4.16%
"COc1ccc(Cn2cc(C(CC(=O)NCCc3ccccn3)c3ccc(C)cc3)c3ccccc32)cc1 (stereo not shown) [B3, CC1=CC=C(C=C1)C(CC(=O)NCCC2=CC=CC=N2)C3=CN(C4=CC=CC=C43)CC5=CC=C(C=C5)OC]",inhibition at 10 µM,[6],14.2%
"COc1ccc(C(CC(=O)NCCc2ccccn2)c2cn(Cc3ccc(F)cc3)c3ccccc23)cc1OC (stereo not shown) [B17, COC1=C(C=C(C=C1)C(CC(=O)NCCC2=CC=CC=N2)C3=CN(C4=CC=CC=C43)CC5=CC=C(C=C5)F)OC]",inhibition at 10 µM,[6],34.9%
Cc1ccc(Cn2cc(C(CC(=O)NCCN(C)C)c3ccc(F)cc3)c3ccccc32)cc1 (stereo not shown) [WN2],inhibition at 10 µM,[6],91.5%
same,IC50,"[6]; −80 mV holding, step to V1/2 of inactivation for 8 s, HEK293T",730 ± 120 nM
"COc1ccc(Cn2cc(C(CC(=O)NCCc3ccccn3)c3cccc(Cl)c3)c3ccccc32)cc1 (stereo not shown) [B30, COC1=CC=C(C=C1)CN2C=C(C3=CC=CC=C32)C(CC(=O)NCCC4=CC=CC=N4)C5=CC(=CC=C5)Cl]",inhibition at 10 µM,[6],8.62%
